The term IC50 denotes the point on the concentration scale where inhibition reaches its midpoint. Low readings indicate higher potency, high ones lower potency.

The target in experiment [1] is IL-17A(FLAG-Tagged): IL-17RA(His-Tagged) (Homo sapiens, UniProt Q16552, K93Q). In words: IL-17A(FLAG-tagged):IL-17RA(His-tagged) binding disruption Eu-HTRF assay, Protocol 1. The note with it: FLAG tagged IL-17A at 2× final concentration (2.5 nM); simple average if tested more than once. The text has this: IL-17A(FLAG-Tagged): IL-17RA(His-Tagged) Binding Disruption Eu-HTRF Assay
Sequence of UniProt Q16552 (Q16552 with tags, fused parts or gaps K93Q): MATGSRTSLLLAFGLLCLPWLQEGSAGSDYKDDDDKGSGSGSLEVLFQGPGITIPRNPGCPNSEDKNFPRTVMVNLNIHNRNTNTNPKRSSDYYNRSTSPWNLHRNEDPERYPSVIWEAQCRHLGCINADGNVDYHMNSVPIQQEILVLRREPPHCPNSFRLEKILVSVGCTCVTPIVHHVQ
An antibody directed against the FLAG tag of IL-17A (SEQ ID NO:1) is labeled with the HTRF donor chromophore (Europium-cryptate). IL-17A is present as a dimer that is “locked into” this quaternary structure due to the formation of loop-spanning […] disulfide bridges. The construct of IL-17RA used in the assay excludes the outer-membrane portion of the receptor and is fused to a C-terminal 10×His tag (SEQ ID NO:2). An antibody directed against the His tag of the IL-17RA chimera is labeled with the HTRF acceptor chromophore (“D2”). The fluorescence-resonance energy transfer (FRET) depends on the vicinity of the donor chromophore to the acceptor, and interruption of the binding between the IL-17A and IL-17RA causes the reduction/loss of FRET. Therefore, this assay allows to evaluate the compound effect on the binding IL-17A and IL-17RA by monitoring the fluorescence intensity of donor vs acceptor. The assay was run using either Protocol 1 or Protocol 2 described below.
Protocol 1: 40 nL of 2-fold serial diluted compound solution for total 22 dilution points is added into each well of a 1536-well, white, low-volume, non-binding plate (Greiner #782904), then 2 μl of FLAG tagged IL-17A at 2× final concentration (2.5 nM) in solution of PBS+0.01% Triton-X100 is added to each well. The assay plate is briefly centrifuged then incubated for 1 h at rt. A mixed solution is prepared containing 2×5 nM 10HIS×IL-17RA, 2×2.5 nM Eu-anti-FLAG (CISBIO), 2×5 nM D2-anti-HIS (CISBIO) in PBS+0.01% Triton-X100+200 mM Potassium Fluoride (Sigma 60238) and […] of mix is added to each well of the assay plate. The plate is briefly centrifuged then incubated for 2 h at rt. The HTRF intensities at the wavelength of donor (620 nm) and acceptor (665 nm) are measured using BMG Pherastar. The ratio between intensities at two wavelengths is calculated and plotted against the compound concentration and the data is fitted to a one-site competition model to yield IC50 of the compound.
Background: In TR-FRET formats the signal depends on donor and acceptor labels being close together.

Experiment [2] deals with IL-17A-induced G-CSF production in human normal keratinocyte (NHK). In words: NHK assay: IL-17A-induced G-CSF production in normal human keratinocytes. Format: cell-based. The note with it: IL-17A 5 ng/mL, 24 h at 37° C., G-CSF by HTRF, simple average if tested more than once. How it is done:
IL-17A acts directly on keratinocytes through binding to dimeric receptor IL-17RA/RC and drives the production of a number of inflammatory mediators known to be elevated in psoriasis lesional tissue. IL-17A small molecule inhibitors that block the IL-17A to interact with IL-17R would inhibit the IL-17A signaling in its targeted cells such as keratinocytes. The compound functional activity is evaluated for its impact on IL-17A-induced G-CSF production in human normal keratinocyte (NHK).
Adult normal human keratinocytes are cultured in keratinocyte growth medium (Lonza) in a flask till reaching ˜90% confluence, then cells are transferred to a 384-well plate at density of 3000-4000 cell/well. Recombinant human IL-17A (Gibco PHC9174) is pre-incubated with titrated compound or DMSO for 1 h at rt then added to the cell culture plate. The final concentration of IL-17A is 5 ng/mL and DMSO is 0.2%, in the culture containing 5% FBS. Cells are cultured/treated for 24 h at 37° C. Supernatants are collected and G-CSF production is measured through HTRF technology using Human G-CSF Kit (CisBio). G-CSF concentration was extrapolated from the standard curve and IC50 is determined using GraphPad Prism. Cell viability is also evaluated using CellTiter-Glo kit (Promega) and effect of compound on cell viability is compared to DMSO control.

With `Cc1nonc1C(=O)N[C@H](c1cn2ncc([C@@H](C3CC3)N3CC(CC(F)(F)F)NC3=O)cc2n1)C1CCC(F)(F)CC1` (single isomer, unassigned) [Example 19, N—((S)-(7-((R)-Cyclopropyl((R*)-2-oxo-4-(2,2,2-trifluoroethyl)imidazolidin-1-yl)methyl)imidazo[1,2-b]pyridazin-2-yl)(4,4-difluorocyclohexyl)methyl)-4-methyl-1,2,5-oxadiazole-3-carboxamide], the IC50 is below 4 µM in experiment [1] and below 4 µM in experiment [2] (Homo sapiens, Keratinocyte).
Regarding `Cc1nonc1C(=O)N[C@H](c1cn2ncc([C@@H](C3CC3)N3CC(CC(F)(F)F)NC3=O)cc2n1)C1CCC(F)(F)CC1` (single isomer, unassigned) [Example 20, N—((S)-(7-((R)-Cyclopropyl((S*)-2-oxo-4-(2,2,2-trifluoroethyl)imidazolidin-1-yl)methyl)imidazo[1,2-b]pyridazin-2-yl)(4,4-difluorocyclohexyl)methyl)-4-methyl-1,2,5-oxadiazole-3-carboxamide], the IC50 in experiment [1] and in experiment [2] was below 4 µM throughout.
As to `Cc1nonc1C(=O)N[C@H](c1cn2ncc(CN3CCNC3=O)cc2n1)C1CCC(F)(F)CC1` [Example 1, (S)—N-((4,4-Difluorocyclohexyl)(7-((2-oxoimidazolidin-1-yl)methyl)imidazo[1,2-b]pyridazin-2-yl)methyl)-4-methyl-1,2,5-oxadiazole-3-carboxamide], the IC50 in experiment [1] is below 4 µM; in experiment [2] (Homo sapiens, Keratinocyte) it was 4 to 10 µM.
For `O=C(N[C@H](c1cn2ncc(CN3CCNC3=O)cc2n1)C1CCC(F)(F)CC1)c1nonc1C1CC1` [Example 2, (S)-4-Cyclopropyl-N-((4,4-difluorocyclohexyl)(7-((2-oxoimidazolidin-1-yl)methyl)imidazo[1,2-b]pyridazin-2-yl)methyl)-1,2,5-oxadiazole-3-carboxamide], in that order: below 4 µM and below 4 µM.
For `CC(C)n1nccc1C(=O)N[C@H](c1cn2ncc(CN3CCNC3=O)cc2n1)C1CCC(F)(F)CC1` [Example 3, (S)—N-((4,4-Difluorocyclohexyl)(7-((2-oxoimidazolidin-1-yl)methyl)imidazo[1,2-b]pyridazin-2-yl)methyl)-1-isopropyl-1H-pyrazole-5-carboxamide], in that order: below 4 µM and below 4 µM.
Consider `C[C@H]1CN(Cc2cnn3cc([C@@H](NC(=O)c4nonc4C4CC4)C4CCC(F)(F)CC4)nc3c2)C(=O)N1` [Example 4, 4-Cyclopropyl-N—((S)—(4,4-difluorocyclohexyl)(7-(((S)-4-methyl-2-oxoimidazolidin-1-yl)methyl)imidazo[1,2-b]pyridazin-2-yl)methyl)-1,2,5-oxadiazole-3-carboxamide], for which the IC50 is below 4 µM in experiment [1] and below 4 µM in experiment [2] (Homo sapiens, Keratinocyte).
Turning to `CC(C)n1nccc1C(=O)N[C@H](c1cn2ncc(CN3C[C@H](C)NC3=O)cc2n1)C1CCC(F)(F)CC1` [Example 5, N—((S)—(4,4-Difluorocyclohexyl)(7-(((S)-4-methyl-2-oxoimidazolidin-1-yl)methyl)imidazo[1,2-b]pyridazin-2-yl)methyl)-1-isopropyl-1H-pyrazole-5-carboxamide], the IC50 in experiment [1] was below 4 µM; in experiment [2] (Homo sapiens, Keratinocyte), above 10 µM.
For `C[C@@H]1CN(Cc2cnn3cc([C@@H](NC(=O)c4nonc4C4CC4)C4CCC(F)(F)CC4)nc3c2)C(=O)N1` [Example 6, 4-Cyclopropyl-N—((S)—(4,4-difluorocyclohexyl)(7-(((R)-4-methyl-2-oxoimidazolidin-1-yl)methyl)imidazo[1,2-b]pyridazin-2-yl)methyl)-1,2,5-oxadiazole-3-carboxamide], in that order: below 4 µM and below 4 µM.
For `COC[C@H](c1cnn2cc([C@H](COC(C)(C)C(F)(F)F)NC(=O)c3nonc3C)nc2c1)N1C[C@@H](C(F)(F)F)NC1=O` [Example 9], in that order: below 4 µM and below 4 µM.
For the compound `COC[C@H](c1cnn2cc([C@H](COC(C)(C)C(F)(F)F)NC(=O)c3nonc3C3CC3)nc2c1)N1C[C@@H](C(F)(F)F)NC1=O` [Example 10], the IC50 in experiment [1] is below 4 µM; in experiment [2] (Homo sapiens, Keratinocyte), below 4 µM.
For `COC[C@H](c1cnn2cc([C@H](COC(C)(C)C(F)(F)F)NC(=O)c3ccnn3C(C)C)nc2c1)N1C[C@@H](C(F)(F)F)NC1=O` [Example 11], the IC50 is below 4 µM in experiment [1] and below 4 µM in experiment [2] (Homo sapiens, Keratinocyte).
Take `[2H]C([2H])([2H])C([2H])([2H])n1nccc1C(=O)N[C@@H](COC(C)(C)C(F)(F)F)c1cn2ncc([C@@H](COC)N3C[C@@H](C(F)(F)F)NC3=O)cc2n1` [Example 12]: the IC50 in experiment [1] is below 4 µM; in experiment [2] (Homo sapiens, Keratinocyte) it was below 4 µM.
In the case of `Cc1nonc1C(=O)N[C@H](c1cn2ncc([C@@H](C3CC3)N3C[C@@H](C4CC4)NC3=O)cc2n1)C1CCC(F)(F)CC1` [Example 17, N—[(S)—[7-[(R)-Cyclopropyl-[(4R)-4-cyclopropyl-2-oxo-imidazolidin-1-yl]methyl]imidazo[1,2-b]pyridazin-2-yl]-(4,4-difluorocyclohexyl)methyl]-4-methyl-1,2,5-oxadiazole-3-carboxamide], the concentration for half-maximal inhibition (IC50) in experiment [1] is below 4 µM; in experiment [2] (Homo sapiens, Keratinocyte), below 4 µM.
`Cc1nonc1C(=O)N[C@H](c1cn2ncc([C@@H](C3CC3)N3C[C@@H](C(C)C)NC3=O)cc2n1)C1CCC(F)(F)CC1` [Example 18, N—[(S)—[7-[(R)-Cyclopropyl-[(4R)-4-isopropyl-2-oxo-imidazolidin-1-yl]methyl]imidazo[1,2-b]pyridazin-2-yl]-(4,4-difluorocyclohexyl)methyl]-4-methyl-1,2,5-oxadiazole-3-carboxamide]: the IC50 in experiment [1] is below 4 µM; in experiment [2] (Homo sapiens, Keratinocyte), below 4 µM.
Take `Cc1nonc1C(=O)N[C@H](c1cn2ncc([C@H](N3C[C@@H](C(F)(F)F)NC3=O)C3(C#N)CCC3)cc2n1)C1CCC(F)(F)CC1` [Example 22, N—((S)-(7-((S)—(1-Cyanocyclobutyl)((S)-2-oxo-4-(trifluoromethyl)imidazolidin-1-yl)methyl)imidazo[1,2-b]pyridazin-2-yl)(4,4-difluorocyclohexyl)methyl)-4-methyl-1,2,5-oxadiazole-3-carboxamide]: the IC50 in experiment [1] is below 4 µM; in experiment [2] (Homo sapiens, Keratinocyte), below 4 µM.
Take `COC[C@H](c1cnn2cc([C@H](COC(C)(C)C(F)(F)F)NC(=O)c3ncnn3C(C)C)nc2c1)N1C[C@@H](C(F)(F)F)NC1=O` [Example 36, 1-Isopropyl-N—((R)-1-(7-((S)-2-methoxy-1-((S)-2-oxo-4-(trifluoromethyl)imidazolidin-1-yl)ethyl)imidazo[1,2-b]pyridazin-2-yl)-2-((1,1,1-trifluoro-2-methylpropan-2-yl)oxy)ethyl)-1H-1,2,4-triazole-5-carboxamide]: the IC50 is below 4 µM in experiment [1] and below 4 µM in experiment [2] (Homo sapiens, Keratinocyte).

These data come from patent US12215111B2, “Imidazopyridazine IL-17 inhibitor compounds” (Janssen Pharmaceutica NV, priority 2021, dated 2025).
